The text below walks through data of patent publication US8735414B2 (priority 2009, dated 2014).

In general, IC50 refers to the point on the concentration scale where inhibition reaches its midpoint. As usually defined, the melting point is the temperature of the solid-liquid transition.

The subject of one data set is bicistronic HCV replicon (replicon RNA, GenBank Accession No. AJ242654). The experiment in a line: HCV Replicon Assay. The following applies: Hepatitis C virus, 72 h, read-out: Replicon IC50. Format: cell-based.
As to `C[C@@H](NS(=O)(=O)c1ccc(-c2c(C#N)c3cc(Cl)ccc3n2C2CCCC2)nc1)C(F)(F)F` [compound 224, 6-(5-chloro-3-cyano-1-cyclopentyl-1H-indol-2-yl)-N-[(2R)-1,1,1-trifluoropropan-2-yl]pyridine-3-sulfonamide], the IC50 was less than 0.5 µM. In the case of `Cc1cc2c(cc1F)c(C#N)c(-c1ccc(S(=O)(=O)NC(C)(C)C)cn1)n2C1CCOCC1` [compound 752, N-tert-butyl-6-[3-cyano-5-fluoro-6-methyl-1-(tetrahydro-2H-pyran-4-yl)-1H-indol-2-yl]pyridine-3-sulfonamide], the half-inhibitory concentration (IC50) was less than 0.5 µM. Same read-out and setting: for `Cc1cc2c(cc1F)c(C#N)c(-c1ccc(S(=O)(=O)NC3(C(F)(F)F)CC3)cn1)n2C1CCCC1` [compound 644, 6-(3-cyano-1-cyclopentyl-5-fluoro-6-methyl-1H-indol-2-yl)-N-[1-(trifluoromethyl)cyclopropyl]pyridine-3-sulfonamide] the value was less than 0.5 µM; for `COc1ccnc(-n2c(-c3ccc(S(=O)(=O)N[C@@H](C)C(F)(F)F)cn3)c(C#N)c3cc(F)c(C)cc32)c1` [compound 816, 6-[3-cyano-5-fluoro-1-(4-methoxypyridin-2-yl)-6-methyl-1H-indol-2-yl]-N-[(2S)-1,1,1-trifluoropropan-2-yl]pyridine-3-sulfonamide], less than 0.5 µM; for `Cc1ccc2c(C#N)c(-c3ccc(S(=O)(=O)N[C@@H](C)C4CC4)cn3)n(CC3CC3)c2c1` [compound 237, 6-[3-cyano-1-(cyclopropylmethyl)-6-methyl-1H-indol-2-yl]-N-[(1S)-1-cyclopropylethyl]pyridine-3-sulfonamide], less than 0.5 µM.

Regarding `Cc1cc2c(cc1F)c(C#N)c(-c1ccc(S(=O)(=O)N[C@@H](C)C(F)(F)F)cn1)n2-c1ccc(F)cn1` [compound 742, 6-[3-cyano-5-fluoro-1-(5-fluoropyridin-2-yl)-6-methyl-1H-indol-2-yl]-N-[(2S)-1,1,1-trifluoropropan-2-yl]pyridine-3-sulfonamide], the half-maximal inhibitory concentration (IC50) was less than 0.5 µM.

As for `CC(C)(C)N(C(F)F)S(=O)(=O)c1ccc(-c2c(C#N)c3cc(F)c(OC(F)F)cc3n2C2CCC2)nc1` [compound 721, N-tert-butyl-6-[3-cyano-1-cyclobutyl-6-(difluoromethoxy)-5-fluoro-1H-indol-2-yl]-N-(difluoromethyl)pyridine-3-sulfonamide], the IC50 lay within 0.5 to 2 µM. Regarding `C[C@H](NS(=O)(=O)c1ccc(-c2c(C#N)c3ccc(Cl)cc3n2C2CCCC2)nc1)C(F)(F)F` [compound 364, 6-(6-chloro-3-cyano-1-cyclopentyl-1H-indol-2-yl)-N-[(2S)-1,1,1-trifluoropropan-2-yl]pyridine-3-sulfonamide], the IC50 was less than 0.5 µM. Same read-out and setting: in the case of `CC(C)NS(=O)(=O)c1cnc(-c2c(C#N)c3ccc(CC(F)F)cc3n2CC2CC2)nc1` [compound 620, 2-[3-cyano-1-(cyclopropylmethyl)-6-(2,2-difluoroethyl)-1H-indol-2-yl]-N-(propan-2-yl)pyrimidine-5-sulfonamide] it was less than 0.5 µM.

With `Cc1ccc2c(C#N)c(-c3ccc(S(=O)(=O)N[C@@H](C)C4CC4)cn3)n(C(C)C)c2c1` [compound 425, 6-[3-cyano-6-methyl-1-(propan-2-yl)-1H-indol-2-yl]-N-[(1S)-1-cyclopropylethyl]pyridine-3-sulfonamide], the IC50 is 0.5 to 2 µM. The same measure, in the same setting: for `N#Cc1c(-c2ccc(S(N)(=O)=O)cn2)n(C2CCC2)c2cc(C3CC3)ccc12` [compound 90, 6-(3-cyano-1-cyclobutyl-6-cyclopropyl-1H-indol-2-yl)pyridine-3-sulfonamide] the value was 2 to 5 µM.

Tested on in a further data set: not given
Experiment: not given
Settings: not given
Consider `CCCn1c(-c2ccc(S(=O)(=O)NC(C)C)cn2)c(C#N)c2ccc(OC(F)F)cc21` [compound 3, 6-[3-cyano-6-(difluoromethoxy)-1-propyl-1H-indol-2-yl]-N-(propan-2-yl)pyridine-3-sulfonamide], for which the melting point lay within 166 to 170 °C. For `CC(C)(NS(=O)(=O)c1ccc(-c2c(C#N)c3ccc(OC(F)F)cc3n2C2CCC2)nc1)C(F)(F)F` [compound 479, 6-[3-cyano-1-cyclobutyl-6-(difluoromethoxy)-1H-indol-2-yl]-N-(1,1,1-trifluoro-2-methylpropan-2-yl)pyridine-3-sulfonamide], the melting point is 165 to 171 °C. Take `CC(C)NS(=O)(=O)c1ccc(-c2c(C#N)c3ccc(C4CC4)cc3n2C2CCC2)nc1` [compound 7, 6-(3-cyano-1-cyclobutyl-6-cyclopropyl-1H-indol-2-yl)-N-(propan-2-yl)pyridine-3-sulfonamide]: the melting point lay in the range of 174 to 176 °C. Take `CC(C)NS(=O)(=O)c1ccc(-c2c(C#N)c3ccc(OC(F)F)cc3n2CC2CC2)cn1` [compound 40, 5-[3-cyano-1-(cyclopropylmethyl)-6-(difluoromethoxy)-1H-indol-2-yl]-N-(propan-2-yl)pyridine-2-sulfonamide]: the melting point fell in the range of 186 to 188 °C. As to `CC(C)NS(=O)(=O)c1ccc(-c2c(C#N)c3ccc(C4CCC4)cc3n2C2CCC2)nc1` [compound 266, 6-(3-cyano-1,6-dicyclobutyl-1H-indol-2-yl)-N-(propan-2-yl)pyridine-3-sulfonamide], the melting point lay in the range of 178 to 180 °C. `C[C@H](NS(=O)(=O)c1ccc(-c2c(C#N)c3ccc(C4CC4)cc3n2C2CCC2)nc1)C(F)(F)F` [compound 369, 6-(3-cyano-1-cyclobutyl-6-cyclopropyl-1H-indol-2-yl)-N-[(2S)-1,1,1-trifluoropropan-2-yl]pyridine-3-sulfonamide]: the melting point lay within 191 to 197 °C.

With `C[C@@H](NS(=O)(=O)c1ccc(-c2c(C#N)c3ccc(C4CC4)cc3n2C2CCC2)nc1)C(F)(F)F` [compound 212, 6-(3-cyano-1-cyclobutyl-6-cyclopropyl-1H-indol-2-yl)-N-[(2R)-1,1,1-trifluoropropan-2-yl]pyridine-3-sulfonamide], the melting point lay within 192 to 196 °C.

With `CC(C)NS(=O)(=O)c1ccc(-c2c(C#N)c3cc(OC(F)F)ccc3n2C2CCC2)nc1` [compound 19, 6-[3-cyano-1-cyclobutyl-5-(difluoromethoxy)-1H-indol-2-yl]-N-(propan-2-yl)pyridine-3-sulfonamide], the melting point was 148 to 153 °C. In turn, `CC(C)(C)NS(=O)(=O)c1ccc(-c2c(C#N)c3ccc(OC(F)F)cc3n2C2CCC2)nc1` [compound 543, N-tert-butyl-6-[3-cyano-1-cyclobutyl-6-(difluoromethoxy)-1H-indol-2-yl]pyridine-3-sulfonamide] registered a melting point of 178 to 180 °C. For the molecule `CC(C)NS(=O)(=O)c1ccc(-c2c(C#N)c3cc(C4CC4)ccc3n2C2CCC2)nc1` [compound 8, 6-(3-cyano-1-cyclobutyl-5-cyclopropyl-1H-indol-2-yl)-N-(propan-2-yl)pyridine-3-sulfonamide], the melting point is 172 to 174 °C. `CC(C)NS(=O)(=O)c1ccc(-c2c(C#N)c3ccc(OC(F)(F)F)cc3n2C2CCC2)nc1` [compound 10, 6-[3-cyano-1-cyclobutyl-6-(trifluoromethoxy)-1H-indol-2-yl]-N-(propan-2-yl)pyridine-3-sulfonamide] yielded a melting point of 191 to 193 °C. Regarding `CC(C)(CF)NS(=O)(=O)c1ccc(-c2c(C#N)c3ccc(OC(F)F)cc3n2C2CCC2)nc1` [compound 77, 6-[3-cyano-1-cyclobutyl-6-(difluoromethoxy)-1H-indol-2-yl]-N-(1-fluoro-2-methylpropan-2-yl)pyridine-3-sulfonamide], the melting point lay in the range of 171 to 178 °C. On to `CC(C)NS(=O)(=O)c1ccc(-c2c(C#N)c3ccc(OC(F)F)cc3n2CC2CC2)nc1` [compound 13, 6-[3-cyano-1-(cyclopropylmethyl)-6-(difluoromethoxy)-1H-indol-2-yl]-N-(propan-2-yl)pyridine-3-sulfonamide], for which the melting point was in the range of 154 to 156 °C. Consider `C[C@@H](NS(=O)(=O)c1ccc(-c2c(C#N)c3ccc(OC(F)F)cc3n2C2CCC2)nc1)C(F)(F)F` [compound 196, 6-[3-cyano-1-cyclobutyl-6-(difluoromethoxy)-1H-indol-2-yl]-N-[(2R)-1,1,1-trifluoropropan-2-yl]pyridine-3-sulfonamide], for which the melting point fell in the range of 159 to 164 °C.

The molecule `CC(NS(=O)(=O)c1ccc(-c2c(C#N)c3ccc(OC(F)F)cc3n2C2CCC2)nc1)C(F)(F)F` (stereo not shown) [compound 78, 6-[3-cyano-1-cyclobutyl-6-(difluoromethoxy)-1H-indol-2-yl]-N-(1,1,1-trifluoropropan-2-yl)pyridine-3-sulfonamide] registered a melting point of 159 to 165 °C. In the case of `N#Cc1c(-c2ccc(S(=O)(=O)NC3(C(F)(F)F)CC3)cn2)n(C2CCC2)c2cc(C3CC3)ccc12` [compound 153, 6-(3-cyano-1-cyclobutyl-6-cyclopropyl-1H-indol-2-yl)-N-[1-(trifluoromethyl)cyclopropyl]pyridine-3-sulfonamide], the melting point was 166 to 171 °C.

With `N#Cc1c(-c2ccc(S(=O)(=O)NC3(C(F)(F)F)CC3)cn2)n(C2CCC2)c2cc(OC(F)F)ccc12` [compound 93, 6-[3-cyano-1-cyclobutyl-6-(difluoromethoxy)-1H-indol-2-yl]-N-[1-(trifluoromethyl)cyclopropyl]pyridine-3-sulfonamide], the melting point was 182 to 187 °C.

On to `N#Cc1c(-c2ccc(S(=O)(=O)NC(CF)CF)cn2)n(C2CCC2)c2cc(C3CC3)ccc12` [compound 35, 6-(3-cyano-1-cyclobutyl-6-cyclopropyl-1H-indol-2-yl)-N-(1,3-difluoropropan-2-yl)pyridine-3-sulfonamide], for which the melting point lay within 175 to 178 °C. For the molecule `C[C@H](NS(=O)(=O)c1ccc(-c2c(C#N)c3ccc(OC(F)F)cc3n2C2CCC2)nc1)C(F)(F)F` [compound 300, 6-[3-cyano-1-cyclobutyl-6-(difluoromethoxy)-1H-indol-2-yl]-N-[(2S)-1,1,1-trifluoropropan-2-yl]pyridine-3-sulfonamide], the melting point was 159 to 162 °C. Turning to `CC(C)NS(=O)(=O)c1ccc(-c2c(C#N)c3ccc(OC(F)F)cc3n2C2CCCCC2)nc1` [compound 99, 6-[3-cyano-1-cyclohexyl-6-(difluoromethoxy)-1H-indol-2-yl]-N-(propan-2-yl)pyridine-3-sulfonamide], the melting point lay within 187 to 190 °C.
